Measured values published in article PMC12040169 (PLOS Biology, 2025).

Experiment: in vitro
Settings: human, hela cells, % viability

Point of comparison: `CC(C)Cc1ccc(C(C)c2nc3ccccc3[nH]2)cc1` (stereo not drawn) [CBK261484], viability at 28.5 h, 10 µM 89.7%. Against it:
- O=C(CN1C(=O)c2ccccc2C1=O)Nc1cccc2cccnc12 [CBK261320] — higher, 91.2%
- COC(=O)c1ccc(NC(=O)c2c(Br)c(Br)c(Br)c(Br)c2C(=O)O)cc1 [CBK261321] — higher, 100%
- O=C(O)CCCC(=O)Nc1ccccc1Br [CBK261322] — higher, 102%
- COc1ccccc1NC(=O)CCCC(=O)O [CBK261323] — higher, 101%
- C(=N\Nc1nc(-c2ccccc2)cs1)/c1ccccc1 [CBK261327] — higher, 101%
- O=C(O)c1cc(C(=O)O)cc(N2C(=O)c3ccc(-c4ccc5c(c4)C(=O)N(c4cc(C(=O)O)cc(C(=O)O)c4)C5=O)cc3C2=O)c1 [CBK261331] — higher, 96.6%
- O=C(O)C1CC(C(=O)O)C(C(=O)O)CC1C(=O)O (stereo not drawn) [CBK261332] — lower, 89.4%
- CC(=O)NCCC(CN1CCOCC1)([N+](=O)[O-])[N+](=O)[O-] [CBK261338] — lower, 88.7%
- O=C(Nc1ccc(Sc2ccc([N+](=O)[O-])cc2)cc1)c1ccc2c(c1)C(=O)N(c1ccccc1-c1ccccc1)C2=O [CBK261340] — lower, 77.1%
- CCC(=O)NC(Nc1cc(Cl)ccc1OC)(C(F)(F)F)C(F)(F)F [CBK261342] — higher, 96.3%
- CCOC(=O)NC(Nc1cccc(C)n1)(C(F)(F)F)C(F)(F)F [CBK261343] — higher, 115%
- O=C(Nc1ccccc1)c1ccc(-c2ccccc2)cc1 [CBK261346] — higher, 107%
- Cc1ccc(NC(=O)c2ccc(-c3ccccc3)cc2)c(OC(=O)c2ccc(-c3ccccc3)cc2)c1 [CBK261347] — higher, 98.9%
- COc1cc(C2N(Cc3ccccc3)CCN2Cc2ccccc2)ccc1OC(C)=O [CBK261349] — lower, 89.2%
- NS(=O)(=O)c1ccc(NC(=O)CCC(=O)O)cc1 [CBK261350] — lower, 86.9%
- Cc1[nH]c2ccccc2c1/C=N/c1ccc(S(N)(=O)=O)cc1 [CBK261352] — higher, 96%
- O=C(N/N=C/c1ccc(Br)s1)c1cccc([N+](=O)[O-])c1 [CBK261354] — higher, 117%
- O=C(O)c1ccc(C(=O)O)c2c(C(=O)O)cccc12 [CBK261356] — lower, 82.3%
- C=CCNC1OC(CO)C(O)C(O)C1O (stereo not drawn) [CBK261357] — lower, 88.9%
- CC1(C)CC(CC(=O)NN)(c2ccccc2)CCO1 (stereo not drawn) [CBK261358C] — lower, 86.6%
- CCOc1ccc(C2(C)C(=O)N(CN3CCOCC3)C(=O)N2CN2CCOCC2)cc1 (stereo not drawn) [CBK261359] — higher, 96%
- CCOc1ccc(C(C)(CC(=O)O)C(=O)O)cc1 (stereo not drawn) [CBK261361] — higher, 102%
- Cc1noc(COc2ccc(OCc3nc(C)no3)cc2)n1 [CBK261364] — higher, 95.6%
- O=C(Nc1cccc(OC(=O)c2cccc(S(=O)(=O)N3CCOCC3)c2)c1)c1ccccc1 [CBK261365] — lower, 85.5%
- O=C(Nc1cccc([N+](=O)[O-])c1)c1cc(S(=O)(=O)N2CCCCC2)ccc1Cl [CBK261367] — higher, 93.9%
- Cc1ccc(C(=O)Nc2cccc(OC(=O)c3cc(S(=O)(=O)N4CCCCC4)ccc3Cl)c2)cc1 [CBK261368] — higher, 97.8%
- CC(=O)Nc1ccc(S(=O)(=O)c2cc(O)ccc2O)cc1 [CBK261372] — lower, 85.9%
- COC(=O)c1ccc(CO)nc1 [CBK261376C] — higher, 104%
- O=C(CNC(=O)c1ccncc1)N/N=C/c1c(O)ccc2ccccc12 [CBK261378] — lower, 77%
- Nc1cc(NC(=O)c2cccc(C(=O)Nc3ccc(Cl)c(N)c3)c2)ccc1Cl [CBK261379] — higher, 94.1%
- OCCNc1nc(Cl)nc(Nc2nc(-c3ccccc3)cs2)n1 [CBK261381] — lower, 86.2%
- N#CCCN(C1CCCCC1)S(=O)(=O)c1ccc(-c2ccc([N+](=O)[O-])cc2)cc1 [CBK261382] — higher, 90.6%
- NC(=O)OC(c1ccccc1[N+](=O)[O-])P(=O)(c1ccccc1)c1ccccc1 (stereo not drawn) [CBK261383] — lower, 88.3%
- C(=N\c1ccc2c(c1)OCCOCCOc1cc(/N=C/c3ccccc3)ccc1OCCOCCO2)/c1ccccc1 [CBK261388] — higher, 100%
- CC(=O)Nc1ccc(-c2nc3ccc(-c4ccc5nc(-c6ccc(NC(C)=O)cc6)oc(=O)c5c4)cc3c(=O)o2)cc1 [CBK261391] — higher, 107%
- O=C(O)c1cc(NC(=O)c2cccc(N3C(=O)c4ccc([N+](=O)[O-])cc4C3=O)c2)cc(C(=O)O)c1 [CBK261394] — higher, 90.5%
- CC(C)(C)C(=O)Nc1ccc(-c2nc3ccc(Cc4ccc5nc(-c6ccc(NC(=O)C(C)(C)C)cc6)oc(=O)c5c4)cc3c(=O)o2)cc1 [CBK261396] — higher, 104%
- O=C1c2ccc(Oc3cccc(Oc4ccc5c(c4)C(=O)N(c4ccccn4)C5=O)c3)cc2C(=O)N1c1ccccn1 [CBK261397] — higher, 89.8%
- O=C1c2ccc(Oc3cccc(Oc4ccc5c(c4)C(=O)N(CCO)C5=O)c3)cc2C(=O)N1CCO [CBK261398] — higher, 110%
- CCCN1C(=S)N(CCO)C(=O)/C1=C/C=C1/Oc2ccccc2N1CCC(=O)O [CBK261400] — lower, 88.6%
- CNC(=O)Nc1ccccc1NC(=O)NC [CBK261401] — higher, 93%
- O=C(O)c1ccc(N2C(=O)CC(N3CCN(Cc4ccccc4)CC3)C2=O)cc1 (stereo not drawn) [CBK261403] — higher, 94.7%
- COc1ccc(CCCNC(=N)N)cc1Cl [CBK261404G] — higher, 93.4%
- CC(C)NCC(O)COCc1ccc(Cl)cc1 (stereo not drawn) [CBK261406C] — higher, 108%
- Cc1ccc(C(=O)N/C(=C\c2cccc([N+](=O)[O-])c2)C(=O)NC2CCCCC2)cc1 [CBK261407] — lower, 89.2%
- N=C1NC(=O)/C(=C\c2ccc(-c3ccc(Br)cc3)o2)S1 [CBK261409] — lower, 69.9%
- O=C(O)c1ccc(S(=O)(=O)c2ccc(O)cc2)cc1 [CBK261411] — higher, 95.2%
- Oc1ccc(/C=N/N(Cc2ccccc2)Cc2ccccc2)cc1 [CBK261414] — higher, 98.2%
- OC(Cn1nc(-c2ccccc2)cc1-c1ccccc1)Cn1c2ccc(Cl)cc2c2cc(Cl)ccc21 (stereo not drawn) [CBK261418] — lower, 84.7%
- Cc1cccc(NCC(O)Cn2c3ccc(Br)cc3c3cc(Br)ccc32)c1 (stereo not drawn) [CBK261419] — higher, 94.5%
- OC(CNc1cccc2ccccc12)Cn1c2ccc(Br)cc2c2cc(Br)ccc21 (stereo not drawn) [CBK261420] — higher, 99.8%
- Cc1nc([N+](=O)[O-])c(NCCO)n1Cc1ccccc1 [CBK261422] — lower, 88.5%
- Cn1c(-c2ccc(-c3nc4cnccc4n3C)cc2)nc2cnccc21 [CBK261423] — higher, 106%
- CC(NC(=O)COc1ccc(Cl)cc1Cl)C(=O)O (stereo not drawn) [CBK261425] — higher, 91.2%
- O=C(O)c1ccc(CN2CCOCC2)o1 [CBK261426C] — higher, 90.7%
- O=C(/C=C(O)/C(O)=C/C(=O)c1ccc(Cl)cc1)c1ccc(Cl)cc1 [CBK261428] — higher, 102%
- CN(C(=O)CCC(=O)O)c1ccccc1C(=O)O [CBK261429] — higher, 104%
- O=C(N/N=C/C=N/NC(=O)c1ccccc1O)c1ccccc1O [CBK261430] — higher, 98.2%
- Cc1cccnc1NC(=O)c1c(O)c2ccccc2n(C)c1=O [CBK261431] — higher, 96%
- CCn1c(=O)c(C(=O)NCCN2CCCCC2)c(O)c2ccccc21 [CBK261432C] — higher, 97.7%
- O=[N+]([O-])c1cccc(-c2nc(-c3ccccc3)c(-c3ccc4oc5ccc(-c6[nH]c(-c7cccc([N+](=O)[O-])c7)nc6-c6ccccc6)cc5c4c3)[nH]2)c1 [CBK261433] — lower, 87.5%
- N=c1n(-c2ccccc2)c(O)c(C(c2ccncc2)c2c(O)n(-c3ccccc3)c(=N)n(-c3ccccc3)c2=O)c(=O)n1-c1ccccc1 (stereo not drawn) [CBK261438] — lower, 82%
- CC(=O)NS(=O)(=O)c1ccc(Nc2ccc([N+](=O)[O-])c3nonc23)cc1 [CBK261443] — the same, 89.7%
- Cc1cc(C)nc(NS(=O)(=O)c2ccc(Nc3ccc4nonc4c3[N+](=O)[O-])cc2)n1 [CBK261444] — higher, 103%
- CCc1nnc(NS(=O)(=O)c2ccc(Nc3ccc4nonc4c3[N+](=O)[O-])cc2)s1 [CBK261445] — higher, 98%
- CC12CN3CC(C)(CN(C1)C3c1ccc(Br)cc1)C2=O (stereo not drawn) [CBK261452] — higher, 92.1%
- COc1cc(C2N3CC4(C)CN2CC(C)(C3)C4=O)ccc1O (stereo not drawn) [CBK261453] — higher, 99.6%
- CC1CCN(CCOCC(O)CNS(=O)(=O)O)CC1 (stereo not drawn) [CBK261454N] — higher, 124%
- NC(=O)C1CCN(S(=O)(=O)c2ccc([N+](=O)[O-])cc2)CC1 [CBK261455] — lower, 87%
- CN(CCO)S(=O)(=O)c1ccccc1[N+](=O)[O-] [CBK261457] — higher, 102%
- CN(Cc1ccccc1)S(=O)(=O)c1ccccc1[N+](=O)[O-] [CBK261458] — higher, 92.3%
- Cc1ncc(COP(=O)(O)O)c(/C=N/c2ccc3ccccc3c2)c1O [CBK261460] — higher, 106%
- O=C(O)/C=C/C(=O)Nc1ccccc1C(=O)O [CBK261461] — higher, 101%
- CN(C)CCCO/N=C(\c1ccccc1)c1ccncc1 [CBK261464G] — higher, 95.3%
- CN1C2CCC1CC(OC(=O)CCN1CCOCC1)C2 (stereo not drawn) [CBK261465] — higher, 97.4%
- CN(C)CCCNc1c(N)c(=O)oc2ccccc12 [CBK261468] — higher, 94.3%
- O=c1oc2ccccc2c(NCCCN2CCOCC2)c1[N+](=O)[O-] [CBK261471] — higher, 120%
- O=C(Nc1cccc2cccnc12)c1cccc2ccccc12 [CBK261473] — lower, 72.7%
- O=C(/C=C/c1ccco1)Nc1cc2ccccc2cc1NC(=O)/C=C/c1ccco1 [CBK261474] — higher, 99.5%
- CC(=O)C12CCCCC1CC1C3CC(C)C4(O)CC(O)CCC4(C)C3CCC12C (stereo not drawn) [CBK261479] — higher, 91.8%
- COc1cc(/C=N/NC(=O)C2COc3ccccc3O2)cc([N+](=O)[O-])c1O (stereo not drawn) [CBK261480] — lower, 89.1%

Same assay, conditions: human, hela cells, % viability, bulk resorufin, single well

Point of comparison: `COc1ccc(N2C(=O)NC(=O)/C(=C\c3ccc(O)c(O)c3)C2=O)cc1` [CBK261436], viability at 28.5 h, 10 µM 92%. Against it:
- C=CCN1C(=O)/C(=N\Nc2ccc(S(=O)(=O)O)cc2)C(=O)NC1=S [CBK261440] — the same, 92%
